Assay results published in US11130741B2 (Bioimics AB, priority 2016, dated 2021).
Values after ≈ are worked out from the molar mass of the structure shown. Structures can show the parent of a compound that is named as a salt. Where two headings read alike, the source gives them in different places.

Experiments:
[1] = system: E. coli RNase P RNA, M1 RNA; experiment: Inhibition of bacterial RNase P activity, IC50 determination (cleavage of pATSerUG by M1 RNA); type: biochemical; settings: NI = No inhibition
[2] = system: Staphylococcus aureus subsp. aureus (ATCC29213); experiment: MIC, broth microdilution (CLSI), Staphylococcus aureus subsp. aureus ATCC29213; type: cell-based; settings: ATCC29213, Table 15, read-out: S. aureus ("wound") (MIC)
[3] = system: Escherichia coli (ATCC25922); experiment: MIC, broth microdilution (CLSI), Escherichia coli ATCC25922
[4] = ATCC25922, read-out: E. coli MIC, Table 15, NI = No inhibition
[5] = ATCC25922, read-out: E. coli MIC

SMILES	IC50 [1]	MIC [2]	MIC [3, 4]	MIC [3, 5]
Cl.NCCNCCCNc1cc(C(F)(F)F)cc2c1Nc1ccccc1S2 [compound 297, N1-(2-aminoethyl)-N3-(3-(trifluoromethyl)-10H-phenothiazin-1-yl)propane-1,3-diamine hydrochloride]	43 µM	16 µg/mL	32 µg/mL	–
CC1CCN(c2ccc3c(c2)Sc2cc(C(F)(F)F)cc(NC4CCN(CCN)CC4)c2N3)C1C.Cl (stereo not shown) [compound 336, N-(1-(2-aminoethyl)piperidin-4-yl)-7-(2,3-dimethyl-pyrrolidin-1-yl)-3-(trifluoromethyl)-10H-phenothiazin-1-amine hydrochloride]	19 µM	1 µg/mL	4 µg/mL	–
CN(C)C1CCN(c2ccc3c(c2)Sc2cc(C(F)(F)F)cc(NC4CCN(CCN)CC4)c2N3)CC1.Cl.Cl [compound 295, N-(1-(2-aminoethyl)piperidin-4-yl)-7-(4-(dimethylamino)piperidin-1-yl)-3-(trifluoromethyl)-10H-phenothiazin-1-amine hydrochloride]	21 µM	32 µg/mL	128 µg/mL	–
NCCN1CCC(Nc2cc(C(F)(F)F)cc3c2Nc2ncccc2S3)CC1 [compound 268, N-(1-(2-aminoethyl)piperidin-4-yl)-7-(trifluoromethyl)-10H-benzo[b] pyrido[2,3-e] [1,4]thiazin-9-amine]	31 µM	8 µg/mL (≈ 19.5 µM)	4 µg/mL (≈ 9.77 µM)	–
Cl.Cl.NC1CCCC(C(=O)Nc2cc(C(F)(F)F)cc3c2Nc2ccc(Br)cc2S3)C1 (stereo not shown) [compound 312, 3-amino-N-(7-bromo-3-(trifluoromethyl)-10H-phenothiazin-1-yl)cyclohexane-1-carboxamide hydrochloride]	12 µM	2 µg/mL	16 µg/mL	–
Cl.Cl.NCCN(CCN)CCN1CCC(Nc2cc(C(F)(F)F)cc3c2Nc2ccc(Br)cc2S3)CC1 [compound 331, N1-(2-aminoethyl)-N1-(2-(4-((7-bromo-3-(trifluoromethyl)-10H-phenothiazin-1-yl)amino)piperidin-1-yl)ethyl)ethane-1,2-diamine hydrochloride]	5.1 µM	4 µg/mL	8 µg/mL	–
CC1CCN(c2ccc3c(c2)Sc2cc(C(F)(F)F)cc(NC4CCN(CCN)CC4)c2N3)C1.Cl.Cl (stereo not shown) [compound 311, N-(1-(2-aminoethyl)piperidin-4-yl)-7-(3-methyl-pyrrolidin-1-yl)-3-(trifluoromethyl)-10H-phenothiazin-1-amine hydrochloride]	2.5 µM	2 µg/mL	8 µg/mL	–
CC1(C)CCN(c2ccc3c(c2)Sc2cc(C(F)(F)F)cc(NC4CCN(CCN)CC4)c2N3)C1.Cl [compound 332, N-(1-(2-aminoethyl)piperidin-4-yl)-7-(3,3-dimethyl-pyrrolidin-1-yl)-3-(trifluoromethyl)-10H-phenothiazin-1-amine hydrochloride]	4.1 µM	1 µg/mL	8 µg/mL	–
CC1CCCCN1c1ccc2c(c1)Sc1cc(C(F)(F)F)cc(NC3CCN(CCN)CC3)c1N2.Cl.Cl.Cl (stereo not shown) [compound 314, N-(1-(2-aminoethyl)piperidin-4-yl)-7-(2-methyl-piperidin-1-yl)-3-(trifluoromethyl)-10H-phenothiazin-1-amine hydrochloride]	30 µM	4 µg/mL	8 µg/mL	–
Cl.Cl.NCCN1CCC(Nc2cc(C(F)(F)F)cc3c2Nc2ccc(N4CCC(F)(F)C4)cc2S3)CC1 [compound 303, N-(1-(2-aminoethyl)piperidin-4-yl)-7-(3,3-difluoro-pyrrolidin-1-yl)-3-(trifluoromethyl)-10H-phenothiazin-1-amine hydrochloride]	9.7 µM	8 µg/mL	32 µg/mL	–
Cl.NC1CCCC(C(=O)Nc2cc(C(F)(F)F)cc3c2Nc2ccc(N4CCCC4)cc2S3)C1 (stereo not shown) [compound 294, 3-amino-N-(7-(pyrrolidin-1-yl)-3-(trifluoromethyl)-10H-phenothiazin-1-yl)cyclohexane-1-carboxamide hydrochloride]	2.4 µM	8 µg/mL	64 µg/mL	–
Cl.NCCNCCCNc1cc(C(F)(F)F)cc2c1Nc1ccc(Br)cc1S2 [compound 298, N1-(2-aminoethyl)-N3-(7-bromo-3-(trifluoromethyl)-10H-phenothiazin-1-yl)propane-1,3-diamine]	14 µM	8 µg/mL	8 µg/mL	–
Cl.NCCNCCCNc1cc(C(F)(F)F)cc2c1Nc1ccc(N3CC4(CCC4)C3)cc1S2 [compound 347, N1-(7-(2-azaspiro[3.3]heptan-2-yl)-3-(trifluoromethyl)-10H-phenothiazin-1-yl)-N3-(2-aminoethyl) propane-1,3-diamine hydrochloride]	–	4 µg/mL	8 µg/mL	–
FC(F)(F)c1cc(NC2CCNCC2)c2c(c1)Sc1cc(N3CCNCC3)ccc1N2 [compound 270, 7-(piperazin-1-yl)-N-(piperidin-4-yl)-3-(trifluoromethyl)-10H-phenothiazin-1-amine hydrochloride]	–	32 µg/mL	–	128 µg/mL
CC1CCCN1c1ccc2c(c1)Sc1cc(C(F)(F)F)cc(NC3CCN(CCN)CC3)c1N2.Cl.Cl (stereo not shown) [compound 316, N-(1-(2-aminoethyl)piperidin-4-yl)-7-(2-methyl-pyrrolidin-1-yl)-3-(trifluoromethyl)-10H-phenothiazin-1-amine hydrochloride]	–	2 µg/mL	8 µg/mL	–
Cl.Cl.NCCN1CCC(Nc2cc(C(F)(F)F)cc3c2Nc2ccc(N4CCC(N)CC4)cc2S3)CC1 [compound 272, N-(1-(2-aminoethyl)piperidin-4-yl)-7-(4-aminopiperidin-1-yl)-3-(trifluoromethyl)-10H-phenothiazin-1-amine]	–	16 µg/mL	32 µg/mL	–
CC1CC(C)N(c2ccc3c(c2)Sc2cc(C(F)(F)F)cc(NCCCNCCN)c2N3)C1.Cl (stereo not shown) [compound 349, N1-(2-aminoethyl)-N3-(7-(2,4-dimethyl-pyrrolidin-1-yl)-3-(trifluoromethyl)-10H-phenothiazin-1-yl)propane-1,3-diamine hydrochloride]	–	4 µg/mL	16 µg/mL	–
Cl.NCCN1CCC(Nc2cc(C(F)(F)F)cc3c2Nc2ccc(N4CCC(C(N)=O)C4)cc2S3)CC1 (stereo not shown) [compound 338, 1-(9-((1-(2-aminoethyl)piperidin-4-yl)amino)-7-(trifluoromethyl)-10H-phenothiazin-3-yl)pyrrolidine-3-carboxamide hydrochloride]	–	4 µg/mL	64 µg/mL	–
FC(F)(F)c1cc(NC2CCNCC2)c2c(c1)SC1CCCCC1N2 (stereo not shown) [compound 259, N-(piperidin-4-yl)-7-(trifluoromethyl)-2,3,4,4a,10,10a-hexahydro-1H-phenothiazin-9-amine]	–	16 µg/mL (≈ 43.1 µM)	64 µg/mL (≈ 172 µM)	–
Cl.Cl.NCCN1CCC(Nc2cc(C(N)=O)cc3c2Nc2ccccc2S3)CC1 [compound 287, 1-((1-(2-aminoethyl)piperidin-4-yl)amino)-10H-phenothiazine-3-carboxamide hydrochloride]	–	128 µg/mL	–	> 128 µg/mL
FC(F)(F)c1cc(NC2CCNCC2)c2c(c1)Sc1cccnc1N2 [compound 264, N-(piperidin-4-yl)-7-(trifluoromethyl)-10H-benzo[b] pyrido[2,3-e] [1,4]thiazin-9-amine]	–	8 µg/mL (≈ 21.8 µM)	16 µg/mL (≈ 43.7 µM)	–
Cl.NCCN1CCC(Nc2cc(C(F)(F)F)cc3c2Nc2ccc(N4CCC4)cc2S3)CC1 [compound 296, N-(1-(2-aminoethyl)piperidin-4-yl)-7-(azetidin-1-yl)-3-(trifluoromethyl)-10H-phenothiazin-1-amine hydrochloride]	–	4 µg/mL	8 µg/mL	–
NCCNCCCNc1cc(C(F)(F)F)cc2c1Nc1ccc(C3CCCC3)cc1S2 [compound 353, N1-(2-aminoethyl)-N3-(7-cyclopentyl-3-(trifluoromethyl)-10H-phenothiazin-1-yl) propane-1,3-diamine hydrochloride]	–	2 µg/mL	–	8 µg/mL
NCCCN1c2ccc(N3CCNCC3)cc2Sc2cc(C(F)(F)F)ccc21 [compound 265, 3-(3-(piperazin-1-yl)-7-(trifluoromethyl)-10H-phenothiazin-10-yl)propan-1-amine hydrochloride]	–	16 µg/mL	–	64 µg/mL
Cl.NCCN1CCC(Nc2cc(C(F)(F)F)cc3c2Nc2cc(N4CCCC4)ccc2S3)CC1 [compound 356, N-(1-(2-aminoethyl)piperidin-4-yl)-8-(pyrrolidin-1-yl)-3-(trifluoromethyl)-10H-phenothiazin-1-amine hydrochloride]	–	16 µg/mL	32 µg/mL	–
Cc1cc(NC2CCN(CCN)CC2)c2c(c1)Sc1cc(Br)ccc1N2.Cl [compound 329, N-(1-(2-aminoethyl)piperidin-4-yl)-7-bromo-3-methyl-10H-phenothiazin-1-amine hydrochloride]	–	16 µg/mL	64 µg/mL	–
CCN(C)c1ccc2c(c1)Sc1cc(C(F)(F)F)cc(NCCCNCCN)c1N2.Cl.Cl [compound 348, N1-(3-((2-aminoethyl)amino)propyl)-N7-ethyl-N7-methyl-3-(trifluoromethyl)-10H-phenothiazine-1,7-diamine hydrochloride]	–	4 µg/mL	32 µg/mL	–
CC(=O)Nc1cc(C(F)(F)F)cc2c1Nc1ccc(N3CCCC3)cc1S2.Cl [compound 328, N-(7-(pyrrolidin-1-yl)-3-(trifluoromethyl)-10H-phenothiazin-1-yl)acetamide hydrochloride]	–	16 µg/mL	> 128 µg/mL	–
Cl.FC(F)(F)c1cc(NC2CCN(CCN3CCNCC3)CC2)c2c(c1)Sc1cc(Br)ccc1N2 [compound 319, 7-bromo-N-(1-(2-(piperazin-1-yl)ethyl)piperidin-4-yl)-3-(trifluoromethyl)-10H-phenothiazin-1-amine hydrochloride]	–	8 µg/mL	8 µg/mL	–
